Measurements taken from patent US20070135499A1 (Aerie Pharmaceuticals, Inc., priority 2005, published 2007).
“Also recorded” adds a separate entry of the source. Each block holds one compound with its values, some of them ahead of it.

What was measured:
[1] = Topical ocular composition of Example 103 administered to the eyes; assay type: in vivo; settings: 0.50 wt % topical composition
Protocol: Examples of such assays are described in the following reference, incorporated herein: C. Liljebris, G. Selen, B. Resul, J. Sternschantz, and U. Hacksell, “Derivatives of 17-Phenyl-18,19,20-trinorprostaglandin F2α Isopropyl Ester: Potential Antiglaucoma Agents”, Journal of Medicinal Chemistry, Vol. 38 (2) 1995, pp. 289-304.
Topical pharmaceutical compositions for lowering intraocular pressure are prepared by conventional methods and formulated as follows: […]
A compound according to this invention is used as the hydrazide derivative. […]

hGRK-2 = target: T1, hGRK-2 (Homo sapiens, UniProt P25098); experiment: luciferase-based (Kinase-Glo) biochemical kinase inhibition assay, hGRK-2; settings: for Ki: luciferase assay, casein substrate, 10 μM ATP, read-out: GRK-2 inhibition, Ki class
T1 sequence (P25098 1-689): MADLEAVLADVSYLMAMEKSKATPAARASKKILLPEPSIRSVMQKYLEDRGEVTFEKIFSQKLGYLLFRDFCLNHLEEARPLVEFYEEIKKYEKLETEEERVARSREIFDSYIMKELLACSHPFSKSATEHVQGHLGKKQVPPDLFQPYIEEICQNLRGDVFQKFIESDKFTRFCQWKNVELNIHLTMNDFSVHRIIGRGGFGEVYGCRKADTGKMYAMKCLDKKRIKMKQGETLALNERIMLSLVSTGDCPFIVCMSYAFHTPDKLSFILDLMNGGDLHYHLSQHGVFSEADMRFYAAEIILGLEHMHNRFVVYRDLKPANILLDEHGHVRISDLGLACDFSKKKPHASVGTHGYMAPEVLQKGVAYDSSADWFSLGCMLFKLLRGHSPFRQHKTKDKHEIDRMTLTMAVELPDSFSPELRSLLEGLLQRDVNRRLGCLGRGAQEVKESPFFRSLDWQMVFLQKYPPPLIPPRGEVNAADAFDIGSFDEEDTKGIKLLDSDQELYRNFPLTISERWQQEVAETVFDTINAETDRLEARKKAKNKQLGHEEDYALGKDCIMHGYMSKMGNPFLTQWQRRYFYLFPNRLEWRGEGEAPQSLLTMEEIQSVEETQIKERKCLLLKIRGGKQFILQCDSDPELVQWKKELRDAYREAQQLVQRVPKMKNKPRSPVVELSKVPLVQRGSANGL
Method in brief: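 Final conditions: 50 nM hGRK2, 20 μM casein, 10 μM ATP and 50 μM test compound in 4.5% DMSO, in HEPES pH 7.5 buffer with MgCl2, orthovanadate, CHAPS, BSA and DTT. Incubation ran 90-120 min at room temperature, targeting 20-30% ATP consumption. Remaining ATP was read by luminescence with diluted Kinase-Glo containing 0.01% trypan blue.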

GRK-3 = target: T2, GRK-3 (Homo sapiens, UniProt P35626); experiment: luciferase-based biochemical kinase inhibition assay, GRK-3; settings: same luciferase assay; read-out: GRK-3 inhibition, Ki class
T2 sequence (P35626 1-688): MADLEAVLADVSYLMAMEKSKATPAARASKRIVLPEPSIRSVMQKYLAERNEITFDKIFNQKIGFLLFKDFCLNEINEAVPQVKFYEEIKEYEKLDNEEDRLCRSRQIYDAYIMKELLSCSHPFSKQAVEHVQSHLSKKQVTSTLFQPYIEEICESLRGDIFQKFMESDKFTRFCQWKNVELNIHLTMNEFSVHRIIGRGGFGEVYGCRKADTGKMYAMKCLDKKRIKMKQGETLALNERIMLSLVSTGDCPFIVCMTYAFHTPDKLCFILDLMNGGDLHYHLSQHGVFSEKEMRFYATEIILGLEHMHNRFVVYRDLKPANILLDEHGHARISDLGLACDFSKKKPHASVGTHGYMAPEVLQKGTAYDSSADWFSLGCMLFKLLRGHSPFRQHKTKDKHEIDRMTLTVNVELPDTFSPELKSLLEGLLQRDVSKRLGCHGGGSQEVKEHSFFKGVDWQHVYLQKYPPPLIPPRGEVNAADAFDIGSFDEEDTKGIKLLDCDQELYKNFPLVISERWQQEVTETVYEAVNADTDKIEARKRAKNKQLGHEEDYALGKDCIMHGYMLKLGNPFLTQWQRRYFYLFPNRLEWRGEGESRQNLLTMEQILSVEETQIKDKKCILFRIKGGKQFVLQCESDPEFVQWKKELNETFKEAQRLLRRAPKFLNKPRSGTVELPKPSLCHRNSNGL
Protocol: (§1) The inhibition of G-protein-coupled receptor kinases including hGRK-2 was determined for the hydrazide compounds using a biochemical assay. The inhibition of GRK-3, GRK-5 and GRK-6 was also determined using the same assay for some of the hydrazide derivatives.
(§2) The protein kinase inhibition was determined using a biochemical assay utilizing the light emission of a luciferase reaction. The luciferase-based assay operates on the following reaction principles: [drawing 10]
(§3) An inhibitor of GRK-2 will increase in the amount of ATP in solution, as shown. Thus, an inhibitor of GRK-2 will drive the luciferase reaction to the right, resulting in more light emitted. The amount of light emitted is proportional to the inhibition resulting from the GRK-2 inhibitor. The luciferase-based assay was also used to test some of the hydrazides for the inhibition properties towards other kinases.

GRK-6 = GRK-6 (Homo sapiens, UniProt P43250); experiment: luciferase-based biochemical kinase inhibition assay, GRK-6; settings: same luciferase assay; read-out: GRK-6 inhibition, Ki class
Chain of GRK-6 (P43250 whole entry, species assumed): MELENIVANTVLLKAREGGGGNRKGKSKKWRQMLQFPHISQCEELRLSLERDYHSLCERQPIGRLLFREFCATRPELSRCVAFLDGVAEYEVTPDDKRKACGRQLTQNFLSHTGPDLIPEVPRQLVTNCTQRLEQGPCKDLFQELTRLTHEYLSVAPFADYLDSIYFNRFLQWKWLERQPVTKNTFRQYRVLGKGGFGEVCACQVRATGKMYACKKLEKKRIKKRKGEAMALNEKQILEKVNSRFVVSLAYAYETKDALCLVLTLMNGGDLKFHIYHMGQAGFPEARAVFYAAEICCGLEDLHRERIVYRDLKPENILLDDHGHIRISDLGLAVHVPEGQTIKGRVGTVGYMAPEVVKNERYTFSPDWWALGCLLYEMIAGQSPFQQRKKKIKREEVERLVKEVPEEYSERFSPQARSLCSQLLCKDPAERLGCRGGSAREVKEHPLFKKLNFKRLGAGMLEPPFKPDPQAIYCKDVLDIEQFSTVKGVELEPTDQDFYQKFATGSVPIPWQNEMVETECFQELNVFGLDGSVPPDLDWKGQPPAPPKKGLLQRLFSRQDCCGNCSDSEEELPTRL
Protocol: as §1, §2, §3

[2] = target: Beta 1 Adrenergic receptor (B1 wt); experiment: Transfluor assay, ISO-induced arrestin-GFP translocation to Beta 1 Adrenergic receptor; assay type: cell-based; settings: U2OS cells
mu-opioid receptor = settings: U2OS cells
[3] = target: Beta 2 Adrenergic Receptor (B2 wt); experiment: Transfluor assay, isoproterenol-induced arrestin-GFP translocation to Beta 2 Adrenergic Receptor; assay type: cell-based; settings: U2OS cells
[4] = tested on: Beta 2 Adrenergic receptor; experiment: cAMP accumulation in HEK-293 cells with isoproterenol; assay type: cell-based; settings: Beta 2 Adrenergic receptor overexpressed, fixed concentration of isoproterenol, increased concentrations of compound
Source text: This is consistent with the inhibition of GRK-2 resulting in less translocation of arrestin-GFP, less desensitization, and consequently more signaling by the B2AR. With more receptors available now on the surface of the cell, more cAMP is being generated in the presence of isoproterenol.

GRK-5 = GRK-5 (Homo sapiens, UniProt P34947); experiment: luciferase-based biochemical kinase inhibition assay, GRK-5; settings: same luciferase assay; read-out: GRK-5 inhibition, Ki class
Chain of GRK-5 (P34947 whole entry, species assumed): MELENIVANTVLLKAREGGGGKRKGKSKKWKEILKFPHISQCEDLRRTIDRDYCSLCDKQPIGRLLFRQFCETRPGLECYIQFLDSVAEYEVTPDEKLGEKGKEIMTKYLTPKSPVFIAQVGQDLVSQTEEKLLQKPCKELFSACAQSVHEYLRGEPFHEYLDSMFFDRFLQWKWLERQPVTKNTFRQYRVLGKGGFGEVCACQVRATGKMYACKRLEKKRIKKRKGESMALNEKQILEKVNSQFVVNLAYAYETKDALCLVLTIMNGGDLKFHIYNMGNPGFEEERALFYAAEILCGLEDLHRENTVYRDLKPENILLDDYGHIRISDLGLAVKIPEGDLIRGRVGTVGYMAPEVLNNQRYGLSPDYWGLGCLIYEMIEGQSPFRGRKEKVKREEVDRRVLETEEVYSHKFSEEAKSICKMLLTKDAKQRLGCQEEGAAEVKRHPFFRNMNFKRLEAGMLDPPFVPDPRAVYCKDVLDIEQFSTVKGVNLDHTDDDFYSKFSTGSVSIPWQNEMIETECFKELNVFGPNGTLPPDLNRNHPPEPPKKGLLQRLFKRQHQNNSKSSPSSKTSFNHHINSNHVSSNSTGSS
Protocol: The inhibition of G-protein-coupled receptor kinases including hGRK-2 was determined for the hydrazide compounds using a biochemical assay. […] The inhibition of GRK-3, GRK-5 and GRK-6 was also determined using the same assay for some of the hydrazide derivatives.
as §2, §3

Compound: NC(=O)c1ccc(NCC(=O)N/N=C/c2c(Cl)cncc2Cl)cc1 [Example 28, 4-{[1-(3,5-Dichloro-pyridin-4-yl)-meth-(E)-ylidene-hydrazinocarbonylmethyl]-amino}-benzamide]
- intraocular pressure ([1]; drop twice per day): substantially decreases intraocular pressure
- Ki (hGRK-2): > 10000 nM

Compound: Cc1ccc(Oc2cccc(NCC(=O)N/N=C/c3ccncc3)c2)cc1 [Example 85, (3-p-Tolyloxy-phenylamino)-acetic acid [1-pyridin-4-yl-meth-(E)-ylidene]-hydrazide]
- allergic symptoms ([1]; drop twice per day): substantially decreases allergic symptoms
- dry eye syndrome ([1]; drop twice per day): relieves dry eye syndrome
- Ki (hGRK-2): 10 to 100 nM

Compound: 3-{[1-Pyridin-4-yl-meth-(E)-ylidene-hydrazinocarbonylmethyl]-amino}-benzamide [Example 41]
- Ki (GRK-3): 10 to 100 nM
- Ki (GRK-6): > 10000 nM
- IC50 ([2]; 60 minute pre-incubation, ISO-induced β-arrestin translocation, read-out: IC50 of the β1 arrestin (FIG. 2)): > 10000 nM
- inhibition of arrestin-GFP translocation to the B1 WT [2]: modest inhibition
- inhibition of arrestin-GFP translocation to the μ opioid (mu-opioid receptor): strong inhibition
- IC50 (mu-opioid receptor; read-out: IC50 for the μ-opioid receptor (FIG. 3), 60 minute pre-incubation, morphine-induced β-arrestin translocation): ~150 nM
- inhibition of GRK-2, in words (hGRK-2): very good inhibitor of GRK-2
- Ki (hGRK-2): 10 to 100 nM
- IC50 ([3]; 60 minute pre-incubation, ISO-induced β-arrestin translocation, read-out: IC50 of the β2 arrestin (FIG. 1)): 4000 nM
- inhibition of arrestin-GFP translocation to the B2 WT (F-grains) ([3]; isoproterenol): stepwise reduction in translocation; also recorded: modest inhibition
- accumulation of cAMP [4]: increased accumulation of cAMP

Second part, led by results:

- Ki (hGRK-2): 100 to 1000 nM
Compound: O=C(CNc1cccc(C(=O)NCCN2CCOCC2)c1)N/N=C/c1ccncc1 [Example 79, N-(2-Morpholin-4-yl-ethyl)-3-{[1-pyridin-4-yl-meth-(E)-ylidene-hydrazinocarbonylmethyl]-amino}-benzamide]
- intraocular pressure ([1]; drop 4 times per day): substantially decreases intraocular pressure
- neuroprotective agent ([1]; drop 4 times per day): serves as a neuroprotective agent

- Ki (GRK-3): 100 to 1000 nM
- Ki (hGRK-2): 100 to 1000 nM
Compound: NC(=O)c1cccc(NCC(=O)N/N=C/c2ccncc2)c1 [Example 51, 3-{[1-Pyridin-4-yl-meth-(E)-ylidene-hydrazinocarbonylmethyl]-amino}-benzamide]
- hyperemia, redness and ocular irritation ([1]; drop as needed): substantially decreases hyperemia, redness and ocular irritation

- Ki (GRK-3): 100 to 1000 nM
- Ki (GRK-6): > 10000 nM
- Ki (GRK-5): 1000 to 10000 nM
- Ki (hGRK-2): 100 to 1000 nM
Compound: COc1cccc(NCC(=O)N/N=C(\C)c2ccncc2)c1 [Example 88, (3-Methoxy-phenylamino)-acetic acid [1-pyridin-4-yl-eth-(E)-ylidene]-hydrazide]
